Reference: PMC9611048, “Rapid Simultaneous Determination of Three Synthetic Cannabinoids in Urine and Plasma of Rats Using Ultra-High Performance Liquid Chromatography Tandem Mass Spectrometry” (Toxics, 2022)

How the values were obtained:
[1] = Determination of synthetic cannabinoids in rat plasma by LC-MS/MS after dosing; format: in vivo; conditions: 1 mg/kg tail vein injection; for concentration at 72 h: male, Sprague-Dawley, intravenous
Description: (§1) The Sprague–Dawley male rats (n = 12, 6 weeks, weighing 190–210 g) were obtained from Zhejiang Academy of Medical Sciences (Hangzhou, Zhejiang, China) and acclimatized for 1 week before exposure in the experimental room (temperature 23 ± 2 ℃, humidity 55 ± 10%, 12 h light–dark cycle). After 1-week adaptation, rats were fasted for 16 h before […]. The rats were randomly allocated to 3 groups, the JWH-122, 5F-AMB, and AMB-PUBINACA group, while the doses were all 1 mg/kg bw/day by tail vein injection. The urine samples were collected at 2 h, 4 h, 8 h, and 24 h during the initial 24 h and every 24 h during the next 48 h. The blood samples were collected from the abdominal aorta. Finally, urine samples and blood samples were obtained from each rat and stored at −80 °C. All the above animal experimental procedures were approved by the Zhejiang Center of Laboratory Animals Welfare and Ethical Review Committee (Approval ID: ZJCLA-IACUC-20100005; Hangzhou, China).
In this experiment, extraction conditions of three synthetic cannabinoids in rat plasma and urine were optimized, and the detailed parameters are shown in Table 1. Briefly, 100 μL of plasma sample was transferred into a centrifuge tube with 100 μL of acetonitrile and 500 μL of methanol and then vortexed for 6 min. Finally, the supernatant was centrifuged at 12,000 rpm for 10 min then filtered through a 0.22 μm cellulose filter. Solid phase extraction (SPE) is a common pretreatment method for the synthesis of cannabinoids in urine. The urine sample was extracted by SPE. The SPE cartridges were conditioned with 3 mL of methanol followed by 6 mL of water. Amounts of 1.6 mL of acetonitrile and water were added to 400 µL of urine, mixed uniform. […]
The separated analytes were quantified using an AB SCIEX 6500^+ quadrupole ion trap mass spectrometer (QTRAP MS) under the multiple reaction monitoring (MRM) mode with negative ion channels (Table 2). […] The HPLC-QTRAP-MS data were converted to SCIEX OS 1.4.0.18067 (SCIEX, Toronto, QUE, CA) for qualitative and quantitative analysis.

[2] = Determination of synthetic cannabinoids in rat urine by LC-MS/MS after dosing; format: in vivo; conditions: for concentration at 2 h / concentration at 4 h / concentration at 8 h / concentration at 24 h / concentration at 48 h / concentration at 72 h: male, Sprague-Dawley, intravenous; for detection window: rat, the dose for the tail vein was 1 mg/kg
Description: as §1
In this experiment, extraction conditions of three synthetic cannabinoids in rat plasma and urine were optimized, and the detailed parameters are shown in Table 1. Briefly, 100 μL of plasma sample was transferred into a centrifuge tube with 100 μL of acetonitrile and 500 μL of methanol and then vortexed for 6 min. Finally, the supernatant was centrifuged at 12,000 rpm for 10 min then filtered through a 0.22 μm cellulose filter. Solid phase extraction (SPE) is a common pretreatment method for the synthesis of cannabinoids in urine. The urine sample was extracted by SPE. The SPE cartridges were conditioned with 3 mL of methanol followed by 6 mL of water. Amounts of 1.6 mL of acetonitrile and water were added to 400 µL of urine, mixed uniform. After sample loading, the cartridges were respectively washed with 3 mL of 5% methanol, discard wash. The extract was eluted via 4 mL of methanol and evaporated to dryness under a stream of nitrogen at 40 ℃.
The AB SCIEX ExionLCTM0AD XR high-performance liquid chromatograph system coupled with the SCIEX QTRAP 6500^+ triple quadrupole/linear ion trap mass spectrometer system (AB SCIEX, Milford, MA, USA) was used for analysis. Chromatographic separation was carried out using a Waters UPLC HSS T3 (150 × 2.1 mm, 1.8 μm) column at 40 °C;. Injection volume was 1 μL. The mobile phase comprised 0.1% formic acid in water (A) and acetonitrile (B) at a flow rate of 0.3 mL/min. Gradient conditions were set as follows: 10% B (1 min), to 100% B (in 6 min), hold 100% B (4 min), to 10% B (in 0.1 min), and hold (1.9 min).
The separated analytes were quantified using an AB SCIEX 6500^+ quadrupole ion trap mass spectrometer (QTRAP MS) under the multiple reaction monitoring (MRM) mode with […] ion channels (Table 2). The mass spectrometry parameters were set as follows: curtain gas, 35 psi; collision gas, medium; ion spray voltage, 5500 V; source temperature, 550 ℃; nebulizing gas, 50 psi; heater gas, 50 psi. The HPLC-QTRAP-MS data were converted to SCIEX OS 1.4.0.18067 (SCIEX, Toronto, QUE, CA) for qualitative and quantitative analysis.

[3] = rat urine, 1 mg/kg tail vein injection
[4] = rat urine, 72 h, 1 mg/kg tail vein injection

SMILES: COC(=O)[C@@H](NC(=O)c1nn(CCCCCF)c2ccccc12)C(C)C [5F-AMB, methyl (1-(5-fluoropentyl)-1H-indazole-3-carbonyl)-L-valinate]
- Plasma Concentration 72 h [1]: not detected
- concentration at 2 h [2, 3]: 8.68 ng/mL
- concentration at 4 h [2, 3]: 1.11 ng/mL
- concentration at 8 h [2, 3]: 0.72 ng/mL
- concentration at 24 h [2, 3]: 0.14 ng/mL
- concentration at 48 h [2, 3]: 0.03 ng/mL
- concentration at 72 h [2, 4]: 0.01 ng/mL
- detection window [2]: 2 to 3 days

SMILES: COC(=O)C(NC(=O)c1nn(Cc2ccc(F)cc2)c2ccccc12)C(C)C (stereo not drawn) [AMB-FUBINACA, methyl 2-(1-(4-fluorobenzyl)-1Hindazole-3-carboxamido)-3-methylbutanoate]
- concentration at 72 h [1]: 0.05 ng/mL
- concentration at 2 h [2, 3]: 3.38 ng/mL
- concentration at 4 h [2, 3]: 0.41 ng/mL
- concentration at 8 h [2, 3]: 0.19 ng/mL
- concentration at 24 h [2, 3]: 0.1 ng/mL
- concentration at 48 h [2, 3]: 0.03 ng/mL
- Urine Concentration 72 h [2, 4]: not detected
- detection window [2]: 2 to 3 days

SMILES: CCCCCn1cc(C(=O)c2ccc(C)c3ccccc23)c2ccccc21 [JWH-122, 4-methylnaphthalen-1-yl-(1-pentylindol-3-yl) methanone]
- concentration at 72 h [1]: 0.08 ng/mL
- concentration at 2 h [2, 3]: 0.2 ng/mL
- concentration at 4 h [2, 3]: 0.12 ng/mL
- concentration at 8 h [2, 3]: 0.09 ng/mL
- concentration at 24 h [2, 3]: 0.06 ng/mL
- concentration at 48 h [2, 3]: 0.02 ng/mL
- concentration at 72 h [2, 4]: 0.01 ng/mL
- detection window [2]: 2 to 3 days
